Assay results: paper PMC6133161, “Thiazoles with cyclopropyl fragment as antifungal, anticonvulsant, and anti-Toxoplasma gondii agents: synthesis, toxicity evaluation, and molecular docking study” (Medicinal Chemistry Research, 2018)
Values after ≈ are worked out from the molar mass of the structure shown.

Assays:
[1] = tested on: 6-Hz psychomotor seizures; test: 6-Hz test; type: in vivo, mouse; conditions: mice; for responders at 100 mg/kg: 100 mg/kg ip
Experimental: For in vivo tests that assessed anticonvulsant properties of the test compounds 3a-3j adult male Albino Swiss (CD-1) mice weighing between 18 and 22 g were used. The animals were housed in groups of ten mice per cage at room temperature of 22 ± 2 °C, under light/dark (12:12) cycle. The animals had free access to food and tap water before the experiments. The ambient temperature of the experimental room and humidity (50 ± 10%) were kept consistent throughout all the tests. For behavioral experiments the animals were selected randomly. Each experimental group consisted of 4-8 animals/dose. The experiments were performed between 9 AM and 2 PM. Immediately after the in vivo assay the animals were euthanized by cervical dislocation. All procedures were approved by the Local Ethics Committee of the Jagiellonian University in Krakow (34/2018, 1.02.2018)) and the treatment of animals was in full accordance with ethical standards laid down in respective Polish and EU regulations (Directive No. 86/609/EEC). For in vivo tests the compounds 3a-3j were prepared in 1% Tween 80 solution (POCH, Poland) and they were administered by the intraperitoneal route. Control mice received 1% Tween 80. Pentylenetetrazole (PTZ), pilocarpine hydrochloride and scopolamine butylbromide were provided by Sigma Aldrich (Poland). For the tests they were prepared in 0.9% saline (Polfa Kutno, Poland). PTZ and pilocarpine were administered 60 min after the test compound or vehicle. To assess anticonvulsant properties of the test compounds anticonvulsant screening was conducted. Four assays were used: PTZ, maximal electroshock seizure (MES), 6-Hz and pilocarpine tests. In these assays the dose of 100 mg/kg was chosen as a starting dose. If it turned out to be effective, a lower dose (30 mg/kg) was also tested. This test was performed according to (Barton et al. [2001]). It is an alternative electroshock paradigm that involves low-frequency (6 Hz), long-duration (3 s) electrical stimulation. Corneal stimulation (0.2 ms-duration monopolar rectangular pulses at 6 Hz for 3 s) was delivered by a constant-current device. During electrical stimulation mice were manually restrained and released into the observation cage immediately after current application. At the time of drug administration a drop of 0.5% tetracaine ([…] sterile solution, […] Pharmaceuticals Inc., USA) was applied into the eyes of all animals. Prior to the placement of corneal electrodes, a drop of 0.9% saline was applied on the eyes. In this model seizures manifest in 'stunned' posture associated with rearing, forelimb automatic movements and clonus, twitching of the vibrissae and Straub-tail. At the end of the seizure episode the animals resume their normal exploratory behavior. In this test protection against a seizure episode is considered as the end point and animals are considered to be protected if they resume their normal exploratory behavior within 10 s after electrical stimulation.

[2] = tested on: Toxoplasma gondii RH strain; test: [3H]-uracil incorporation assay in VERO host cells; conditions: Toxoplasma gondii, Vero; for IC50: read-out: IC50 anti-Tg; for activity at 0.98 µg/mL / activity at 1.95 µg/mL / activity at 3.91 µg/mL / activity at 7.81 µg/mL / activity at 15.63 µg/mL / activity at 20 µg/mL / activity at 25 µg/mL / activity at 31.25 µg/mL: read-out: Proliferation of Toxoplasma gondii RH strain ± SD
L929 and VERO cell lines = test: MTT cytotoxicity assay; type: cell-based, mouse; African green monkey; conditions: 24 h, higher concentrations not reached due to limited solubility
[3] = tested on: pilocarpine-induced status epilepticus; test: Pilocarpine-induced seizures; type: in vivo, mouse; conditions: mice, 100 mg/kg ip, pilocarpine 400 mg/kg ip; post-hoc vs vehicle
Experimental: For in vivo tests that assessed anticonvulsant properties of the test compounds 3a–3j adult male Albino Swiss (CD-1) mice weighing between 18 and 22 g were used. The animals were housed in groups of ten mice per cage at room temperature of 22 ± 2 °C, under light/dark (12:12) cycle. The animals had free access to food and tap water before the experiments. The ambient temperature of the experimental room and humidity (50 ± 10%) were kept consistent throughout all the tests. For behavioral experiments the animals were selected randomly. Each experimental group consisted of 4–8 animals/dose. The experiments were performed between 9 AM and 2 PM. Immediately after the in vivo assay the animals were euthanized by cervical dislocation. All procedures were approved by the Local Ethics Committee of the Jagiellonian University in Krakow (34/2018, 1.02.2018)) and the treatment of animals was in full accordance with ethical standards laid down in respective Polish and EU regulations (Directive No. 86/609/EEC). For in vivo tests the compounds 3a–3j were prepared in 1% Tween 80 solution (POCH, Poland) and they were administered by the intraperitoneal route. Control mice received 1% Tween 80. Pentylenetetrazole (PTZ), pilocarpine hydrochloride and scopolamine butylbromide were provided by Sigma Aldrich (Poland). For the tests they were prepared in 0.9% saline (Polfa Kutno, Poland). PTZ and pilocarpine were administered 60 min after the test compound or vehicle. To assess anticonvulsant properties of the test compounds anticonvulsant screening was conducted. Four assays were used: PTZ, maximal electroshock seizure (MES), 6-Hz and pilocarpine tests. In these assays the dose of 100 mg/kg was chosen as a starting dose. If it turned out to be effective, a lower dose (30 mg/kg) was also tested. In this test the mice were pretreated with the investigated compound or vehicle and 60 min later they received pilocarpine (400 mg/kg, ip). To avoid cholinergic side-effects: peripheral toxicity and diarrhea, masticatory and stereotyped movements, animals treated with pilocarpine also received scopolamine butylbromide (1 mg/kg, ip) which was injected 45 min before pilocarpine. After the administration of the convulsant, the mice were observed during the next 60 min for behavioral changes. Latency time to the onset of status epilepticus was considered as the endpoint in this test (Wilhelm et al. [2010]).

[4] = Mus musculus, read-out: X/Y number of mice protected (X) per number of mice tested (Y) (converted)

| Compound | responders at 100 mg/kg [1, 4] [%] | IC50 [2] [µg/mL] | activity at 0.98 µg/mL [2] [%] | activity at 1.95 µg/mL [2] [%] | activity at 3.91 µg/mL [2] [%] | activity at 7.81 µg/mL [2] [%] | activity at 15.63 µg/mL [2] [%] | activity at 20 µg/mL [2] [%] | activity at 25 µg/mL [2] [%] | activity at 31.25 µg/mL [2] [%] | highest possible non-cytotoxic concentration (L929 and VERO cell lines) [µg/mL] | melting point [°C] | latency time to pilocarpine-induced status epilepticus [3] | responders at 30 mg/kg ([1]; Mus musculus, 30 mg/kg ip, read-out: X/Y number of mice protected (X) per number of mice tested (Y) (converted)) [%] | animals protected from seizures ([1]; 100 mg/kg) [%] |
| --- | --- | --- | --- | --- | --- | --- | --- | --- | --- | --- | --- | --- | --- | --- | --- |
| Fc1ccc(-c2csc(N/N=C/C3CC3)n2)cc1 [Compound 3a, (E)-2-(2-(Cyclopropylmethylene)hydrazinyl)-4-(4-fluorophenyl)thiazole] | 25 | 18.1 (≈ 69.2 µM) | 95.4 ± 2.41 | 97.9 ± 7.49 | 96.16 ± 0.61 | 84.89 ± 0.78 | 49.2 ± 3.59 | 45.6 ± 5.64 | 42.2 ± 0.91 | 28.2 ± 5.7 | 31.25 | – | – | – | – |
| Brc1ccc(-c2csc(N/N=C/C3CC3)n2)cc1 [Compound 3b, (E)-4-(4-Bromophenyl)-2-(2-(cyclopropylmethylene)hydrazinyl)thiazole] | 0 | – | 85.8 ± 10.6 | 99.3 ± 6.08 | 107 ± 10.2 | 111 ± 10.1 | – | – | – | – | 7.81 | 165 to 167 | – | – | – |
| Clc1ccc(-c2csc(N/N=C/C3CC3)n2)cc1 [Compound 3c, (E)-4-(4-Chlorophenyl)-2-(2-(cyclopropylmethylene)hydrazinyl)thiazole] | 25 | – | 106.78 ± 0.02 | 108 ± 4.34 | 114 ± 6.65 | – | – | – | – | – | 7.81 | 162 to 163 | did not show statistically significant anticonvulsant effects | – | – |
| Cc1ccc(-c2csc(N/N=C/C3CC3)n2)cc1 [Compound 3d, (E)-2-(2-(Cyclopropylmethylene)hydrazinyl)-4-p-tolylthiazole] | 50 | – | 88.7 ± 2.63 | 100 ± 4.54 | 93.4 ± 5.18 | 90.4 ± 3.29 | 84.41 ± 0.08 | – | – | – | 31.25 | – | – | – | – |
| FC(F)(F)c1ccc(-c2csc(N/N=C/C3CC3)n2)cc1 [Compound 3e, (E)-2-(2-(Cyclopropylmethylene)hydrazinyl)-4-(4-(trifluoromethyl)phenyl)thiazole] | 25 | – | 94.4 ± 6.92 | 100 ± 2.25 | 110 ± 4.37 | – | – | – | – | – | 3.91 | 132 to 134 | did not show statistically significant anticonvulsant effects | – | – |
| COc1ccc(-c2csc(N/N=C/C3CC3)n2)cc1 [Compound 3f, (E)-2-(2-(Cyclopropylmethylene)hydrazinyl)-4-(4-methoxyphenyl)thiazole] | 50 | – | 89.61 ± 0.77 | 84.2 ± 5.47 | 79.2 ± 6.07 | 86.2 ± 6.35 | 63 ± 4.88 | 58.5 ± 3.72 | 57.8 ± 6.09 | 68 ± 5.37 | 31.25 | 149 to 152 | did not show statistically significant anticonvulsant effects | – | – |
| Fc1ccc(-c2csc(N/N=C/C3CC3)n2)c(F)c1 [Compound 3g, (E)-2-(2-(Cyclopropylmethylene)hydrazinyl)-4-(2,4-difluorophenyl)thiazole] | 25 | – | 105 ± 9.98 | 91.8 ± 1.12 | 81.4 ± 1.6 | 78.6 ± 4.6 | 58.1 ± 2.94 | 60.9 ± 3.81 | – | – | 15.63 | – | – | – | – |
| N#Cc1ccc(-c2csc(N/N=C/C3CC3)n2)cc1 [Compound 3h, (E)-4-(2-(2-(Cyclopropylmethylene)hydrazinyl)thiazol-4-yl)benzonitrile] | 50 | 30.1 (≈ 112 µM) | 86.1 | 83.3 ± 3.9 | 79.6 ± 1.15 | 75.5 ± 4.89 | 65 ± 3.28 | 56.6 ± 1 | 53.9 ± 6.64 | 43.81 ± 0.06 | 31.25 | – | – | – | – |
| [N-]=[N+]=Nc1ccc(-c2csc(N/N=C/C3CC3)n2)cc1 [Compound 3i, (E)-4-(4-Azidophenyl)-2-(2-(cyclopropylmethylene)hydrazinyl)thiazole] | 75 | – | 95.3 ± 10.6 | 93.3 ± 4.67 | 105 ± 2.24 | 92.2 ± 3.71 | 98.8 ± 4.29 | – | – | – | 15.63 | 124 to 126 | did not show statistically significant anticonvulsant effects | 25 | 75 |
| O=[N+]([O-])c1ccc(-c2csc(N/N=C/C3CC3)n2)cc1 [Compound 3j, (E)-2-(2-(Cyclopropylmethylene)hydrazinyl)-4-(4-nitrophenyl)thiazole] | 0 | 21.8 (≈ 75.5 µM) | 91 ± 2.47 | 94.44 ± 0.34 | 97.1 ± 4.63 | 96.7 ± 3.29 | 60 ± 7.86 | 58.8 ± 1.67 | 40.3 ± 1.53 | 35.1 ± 424 | 31.25 | – | – | – | – |
